Paper PMC10820826, “Interrogation and validation of the interactome of neuronal Munc18-interacting Mint proteins with AlphaFold2” (The Journal of Biological Chemistry, 2023)
Ends that are not written are not given here.

Key:
Munc18-1 = biological target: T1, Munc18-1 (Rattus norvegicus, UniProt P61765); assay: ITC of Mint peptides and Sx1a binding to Munc18-1
T1 construct: His (C); made in house; host or cells: Escherichia coli Rosetta BL21 (DE3)
Description: For ITC, all peptides were weighed and initially dissolved in the working buffer to make a stock concentration of 2 mM. […] The binding parameters, equilibrium constant Ka (1/Kd), stoichiometry (n), and the enthalpy (ΔH) were determined by processing the ITC data using ORIGIN 7.0 software. The equation, ΔG = ΔH – TΔS, was used to calculate the Gibbs free energy (ΔG), and all the experiments were performed in triplicate or duplicate to calculate the SEM for thermodynamic parameters.

[1] = biological target: Munc18-1^Δ317–333 + Mint1; assay: ITC of Sx1a binding to Munc18-1 hinge-loop deletion mutant in the presence of Mint1 (261–282) peptide; parameters: species or system rat; conditions: Table 2; syringe Sx1a + Mint1, cell Munc18-1^Δ317–333 + Mint1; ITC 25 °C
Text: As Mint1 binds to Munc18-1 domain 3b, we hypothesized that the perturbed Mint1 interaction on deletion of the distal domain 3a hinge-loop might be due to altered structural dynamics in the combined domain3a/3b module. […] This is in line with the ability to cocrystallize the three proteins when excess Mint1 peptide is present ([47]). […] This has potential implications for a role of Mint proteins in Munc18-1-mediated SNARE assembly, which is a tightly regulated and highly dynamic process.
For ITC, all peptides were weighed and initially dissolved in the working buffer to make a stock concentration of 2 mM. […] GST-Mint1 and all the other proteins used in the experiments were buffer exchanged into 50 mM Tris (pH 8.0) and 200 mM NaCl by gel filtration prior to ITC. […] Mint1 PTB domain binding to the APP and TJAP1 peptides was performed in 50 mM Hepes, 200 mM NaCl, 0.5 mM TCEP, and 5% glycerol at 25 °C with 1 mM peptides titrated into 50 μM Mint1 PTB domain. The binding parameters, equilibrium constant Ka (1/Kd), stoichiometry (n), and the enthalpy (ΔH) were determined by processing the ITC data using ORIGIN 7.0 software. The equation, ΔG = ΔH – TΔS, was used to calculate the Gibbs free energy (ΔG), and all the experiments were performed in triplicate or duplicate to calculate the SEM for thermodynamic parameters.

T1 sequence (P61765 whole entry): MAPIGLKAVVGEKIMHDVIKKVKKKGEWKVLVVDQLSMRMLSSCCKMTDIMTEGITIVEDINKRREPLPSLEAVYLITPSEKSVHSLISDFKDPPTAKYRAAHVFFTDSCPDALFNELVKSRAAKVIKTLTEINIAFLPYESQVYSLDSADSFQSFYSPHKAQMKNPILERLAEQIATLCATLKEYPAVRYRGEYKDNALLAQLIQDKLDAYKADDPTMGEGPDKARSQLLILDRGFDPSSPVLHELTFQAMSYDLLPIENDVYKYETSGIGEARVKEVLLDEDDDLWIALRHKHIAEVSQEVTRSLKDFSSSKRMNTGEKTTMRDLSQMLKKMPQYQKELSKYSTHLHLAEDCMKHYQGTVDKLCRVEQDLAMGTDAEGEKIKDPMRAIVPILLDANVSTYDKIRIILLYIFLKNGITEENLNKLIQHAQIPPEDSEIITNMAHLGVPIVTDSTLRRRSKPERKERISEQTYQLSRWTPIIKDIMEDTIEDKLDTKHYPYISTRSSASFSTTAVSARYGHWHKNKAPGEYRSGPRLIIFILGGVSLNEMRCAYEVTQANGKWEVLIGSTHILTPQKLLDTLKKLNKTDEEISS

| Kd (Munc18-1) [µM] | Substance | Kd [1] [µM] |
| --- | --- | --- |
| 216 | MDSYEQEEDIDQIVAAVKQSMS [Mint1_14] | – |
| – | Sx1a: recombinant rat Syntaxin1a (Sx1_1–261-His) expressed in E. coli | 0.09 |
| 200 | LEDQEEDIDQIVAEIKMELEMEEI [Mint2_2] | – |
